ChEMBL document CHEMBL1201862, “PubChem BioAssay data set” (2004)
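These data come from cells grown in 96-well plates and exposed to compound for 48 hours at five concentrations. GI50: concentration for 50% inhibition of growth.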 Active and inactive are the calls of the source. Rule as the data show it: active = GI50 up to about 1.1 µM and inactive = higher.

Tests used:
Assay in all cases: NCI anticancer screen, dose series, 48 h
[1] = test system: A549
[2] = test system: BT-549
[3] = test system: CAKI-1
[4] = test system: HCC 2998
[5] = test system: HCT-116
[6] = test system: KM12
[7] = test system: MCF7
[8] = test system: MOLT-4
[9] = test system: NCI-H23
[10] = test system: NCI-H460
[11] = test system: OVCAR-3
[12] = test system: OVCAR-4
[13] = test system: PC-3
[14] = test system: RPMI-8226
[15] = test system: SF-268
[16] = test system: SK-MEL-28
[17] = test system: SK-MEL-2
[18] = test system: SR
[19] = test system: SW-620
[20] = test system: UACC-257

Row | SMILES | GI50 [1] | GI50 [2] | GI50 [3] | GI50 [4] | GI50 [5] | GI50 [6] | GI50 [7] | GI50 [8] | GI50 [9] | GI50 [10] | GI50 [11] | GI50 [12] | GI50 [13] | GI50 [14] | GI50 [15] | GI50 [16] | GI50 [17] | GI50 [18] | GI50 [19] | GI50 [20]
1 | COC(=O)CCc1cc(O)c2c(c1)C(C(=O)OC)C(c1ccc(O)c(O)c1)O2 (stereo not given) | 43.4 µM (inactive) | 12.5 µM (inactive) | 26.6 µM (inactive) | 5.02 µM (inactive) | 7.19 µM (inactive) | 3.88 µM (inactive) | 4.79 µM (inactive) | 5.09 µM (inactive) | 26.6 µM (inactive) | 22.9 µM (inactive) | 3.71 µM (inactive) | > 58.7 µM (inactive) | 19.6 µM (inactive) | 22 µM (inactive) | 16.3 µM (inactive) | 8.93 µM (inactive) | 3.39 µM (inactive) | 3.45 µM (inactive) | 6.17 µM (inactive) | > 48.2 µM (inactive)
2 | COC(=O)/C=C1/OC(c2ccccc2)=CC1=O | 29 µM (inactive) | 17.7 µM (inactive) | 19.4 µM (inactive) | 18.2 µM (inactive) | 15.9 µM (inactive) | 16.7 µM (inactive) | 11.7 µM (inactive) | 6.38 µM (inactive) | 17.6 µM (inactive) | 19.7 µM (inactive) | 17.9 µM (inactive) | 16.4 µM (inactive) | 20.4 µM (inactive) | 6.25 µM (inactive) | 19.1 µM (inactive) | 19.9 µM (inactive) | 22.5 µM (inactive) | > 23.4 µM (inactive) | 16.1 µM (inactive) | 24.7 µM (inactive)
3 | CSc1c(C#N)c(N)n(-c2ccc(C)cc2)c(=O)c1C#N | > 100 µM (inactive) | > 100 µM (inactive) | > 100 µM (inactive) | > 100 µM (inactive) | > 100 µM (inactive) | > 100 µM (inactive) | > 100 µM (inactive) | > 100 µM (inactive) | > 100 µM (inactive) | > 100 µM (inactive) | > 100 µM (inactive) | > 100 µM (inactive) | > 100 µM (inactive) | > 100 µM (inactive) | > 100 µM (inactive) | > 100 µM (inactive) | > 100 µM (inactive) | > 100 µM (inactive) | > 100 µM (inactive) | > 100 µM (inactive)
4 | CC1=C(C(=O)NC2CCCCC2)CC(C(=O)NC2CCCCC2)=C(C)N1 | > 100 µM (inactive) | > 100 µM (inactive) | > 100 µM (inactive) | > 100 µM (inactive) | > 100 µM (inactive) | > 100 µM (inactive) | > 100 µM (inactive) | > 100 µM (inactive) | > 100 µM (inactive) | > 100 µM (inactive) | > 100 µM (inactive) | > 100 µM (inactive) | 77.4 µM (inactive) | > 100 µM (inactive) | 39.9 µM (inactive) | > 100 µM (inactive) | > 100 µM (inactive) | > 100 µM (inactive) | > 100 µM (inactive) | > 100 µM (inactive)
5 | ON(CCc1ccccn1)Cc1ccccc1 | > 100 µM (inactive) | > 100 µM (inactive) | > 100 µM (inactive) | > 100 µM (inactive) | > 100 µM (inactive) | > 100 µM (inactive) | > 100 µM (inactive) | > 100 µM (inactive) | > 100 µM (inactive) | > 100 µM (inactive) | > 100 µM (inactive) | > 100 µM (inactive) | > 100 µM (inactive) | > 100 µM (inactive) | > 100 µM (inactive) | > 100 µM (inactive) | > 100 µM (inactive) | > 100 µM (inactive) | > 100 µM (inactive) | > 100 µM (inactive)
6 | CCC(C)C1NC(=O)C(NC(=O)C(CC(C)C)N(C)C(=O)[C@@H]2CC(O)CN2C(=O)[C@H](C)O)C(C)OC(=O)[C@H](Cc2ccc(OC)cc2)N(C)C(=O)[C@@H]2CCCN2C(=O)[C@H](CC(C)C)NC(=O)C(C)C(=O)[C@H](C(C)C)OC(=O)CC1O (stereo not given in full) | 0.325 µM (active) | 0.189 µM (active) | 1.14 µM (inactive) | 0.148 µM (active) | 0.0458 µM (active) | 0.035 µM (active) | 0.0627 µM (active) | 0.102 µM (active) | 0.0169 µM (active) | 0.117 µM (active) | 0.232 µM (active) | 0.17 µM (active) | 0.252 µM (active) | 0.249 µM (active) | 0.153 µM (active) | 0.0462 µM (active) | 0.0621 µM (active) | 0.345 µM (active) | 0.235 µM (active) | 0.276 µM (active)
